Assay results: BindingDB's records for doi:10.3109/14756366.2012.709242 (Anadolu University, 2013)

Experiments:
Acetylcholinesterase = Acetylcholinesterase (Electrophorus electricus, UniProt O42275); assay: Enzymatic Assay; settings: pH 8; 25 °C
Description: (§1) AChE or BChE solution (50 μL) and compound solution (50 μL), which is prepared in 2% DMSO at a concentration range of 10^−1-10^−6 mM, were added to 3.0 mL phosphate buffer (pH8 ± 0.1) and incubated at 25°C for 5 min. The reaction was started by adding (DTNB) (50 μL) and ATC (10 μL) to the enzyme-inhibitor mixture. […] As a control, an identical solution of the enzyme without the inhibitor was processed following the same protocol. The blank reading contained 3.0 mL buffer, 50 μL 2% DMSO, 50 μL DTNB and 10 μL substrate. All processes were assayed in triplicate.

[1] = molecular target: Carboxylic ester hydrolase (Equus caballus, UniProt Q9N1N9); assay: Enzymatic Assay
Description: as §1

Chain of Carboxylic ester hydrolase (Q9N1N9 whole entry): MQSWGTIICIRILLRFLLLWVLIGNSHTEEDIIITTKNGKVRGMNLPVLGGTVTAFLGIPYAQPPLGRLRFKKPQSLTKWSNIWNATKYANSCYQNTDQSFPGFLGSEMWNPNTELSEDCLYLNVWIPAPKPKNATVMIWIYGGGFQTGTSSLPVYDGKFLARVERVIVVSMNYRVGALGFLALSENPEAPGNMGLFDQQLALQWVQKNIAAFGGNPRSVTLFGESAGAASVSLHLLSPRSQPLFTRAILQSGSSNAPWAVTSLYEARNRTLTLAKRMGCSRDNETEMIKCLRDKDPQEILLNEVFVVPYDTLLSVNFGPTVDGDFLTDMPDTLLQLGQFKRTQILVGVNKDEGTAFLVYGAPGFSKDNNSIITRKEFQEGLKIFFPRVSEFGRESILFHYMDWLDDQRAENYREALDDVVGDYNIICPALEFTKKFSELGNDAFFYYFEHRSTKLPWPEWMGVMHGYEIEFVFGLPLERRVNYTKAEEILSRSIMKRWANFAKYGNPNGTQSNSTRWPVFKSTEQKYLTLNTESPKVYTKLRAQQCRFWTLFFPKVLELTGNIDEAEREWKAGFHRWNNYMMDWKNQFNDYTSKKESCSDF
Chain of Acetylcholinesterase (O42275 whole entry): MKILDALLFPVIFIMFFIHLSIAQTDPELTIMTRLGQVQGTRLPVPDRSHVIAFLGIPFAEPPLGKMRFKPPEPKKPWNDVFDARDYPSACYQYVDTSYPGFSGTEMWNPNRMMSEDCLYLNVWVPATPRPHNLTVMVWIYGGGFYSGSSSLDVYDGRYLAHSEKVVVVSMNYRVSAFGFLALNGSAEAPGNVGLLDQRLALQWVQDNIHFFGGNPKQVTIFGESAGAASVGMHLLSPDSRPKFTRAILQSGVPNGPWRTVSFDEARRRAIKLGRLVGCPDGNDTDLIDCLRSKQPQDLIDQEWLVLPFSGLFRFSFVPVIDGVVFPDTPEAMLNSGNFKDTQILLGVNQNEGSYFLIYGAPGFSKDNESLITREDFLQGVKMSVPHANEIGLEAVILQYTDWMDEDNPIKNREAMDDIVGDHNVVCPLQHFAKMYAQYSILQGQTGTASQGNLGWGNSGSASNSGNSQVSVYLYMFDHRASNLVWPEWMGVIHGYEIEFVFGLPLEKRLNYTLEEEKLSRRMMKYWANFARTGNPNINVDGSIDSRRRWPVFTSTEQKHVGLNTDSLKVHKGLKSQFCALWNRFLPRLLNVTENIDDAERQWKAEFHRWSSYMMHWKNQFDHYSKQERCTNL

## COc1ccccc1N1CCN(CC(=O)Nc2ccc(-c3csc(C)n3)cc2)CC1 [2-[4-(2-Methoxyphenyl)piperazine-1-yl]-N-[4-(2-methylthiazol-4-yl)phenyl]acetamide (5m)]
Acetylcholinesterase
  IC50: 8.42 µM
[1]
  IC50: > 100 µM

## Cc1cccc(N2CCN(CC(=O)Nc3ccc(-c4csc(C)n4)cc3)CC2)c1 [2-[4-(3-Methylphenyl)piperazine-1-yl]-N-[4-(2-methylthiazol-4-yl)phenyl]acetamide (5j)]
Acetylcholinesterase
  IC50: 88.4 µM
[1]
  IC50: > 100 µM

## Cc1nc(-c2ccc(NC(=O)CN3CCN(C)CC3)cc2)cs1 [2-(4-Methylpiperazine-1-yl)-N-[4-(2-methylthiazol-4-yl)phenyl]acetamide (5a)]
Acetylcholinesterase
  IC50: 7.12 µM
[1]
  IC50: > 100 µM

## Cc1nc(-c2ccc(NC(=O)CN3CCN(c4ccc(Cl)cc4)CC3)cc2)cs1 [2-[4-(4-Chlorophenyl)piperazine-1-yl]-N-[4-(2-methylthiazol-4-yl)phenyl]acetamide (5g)]
Acetylcholinesterase
  IC50: > 100 µM
[1]
  IC50: > 100 µM

## Cc1nc(-c2ccc(NC(=O)CN3CCN(c4ccccc4)CC3)cc2)cs1 [2-(4-Phenylpiperazine-1-yl)-N-[4-(2-methylthiazol-4-yl)phenyl]acetamide (5d)]
Acetylcholinesterase
  IC50: > 100 µM
[1]
  IC50: > 100 µM

## Cc1nc(-c2ccc(NC(=O)CN3CCN(C4CCCCC4)CC3)cc2)cs1 [2-(4-Cyclohexylpiperazine-1-yl)-N-[4-(2-methylthiazol-4-yl)pheny])acetamide (5c)]
Acetylcholinesterase
  IC50: 6.34 µM
[1]
  IC50: > 100 µM

## Cc1nc(-c2ccc(NC(=O)CN3CCN(Cc4ccccc4)CC3)cc2)cs1 [2-[4-(2-Benzyl)piperazine-1-yl]-N-[4-(2-methylthiazol-4-yl)phenyl]acetamide (5o)]
Acetylcholinesterase
  IC50: 0.011 µM
[1]
  IC50: > 100 µM

## Cc1nc(-c2ccc(NC(=O)CN3CCN(C(=O)c4ccco4)CC3)cc2)cs1 [2-[4-(2-Furoyl)piperazine-1-yl]-N-[4-(2-methylthiazol-4-yl)phenyl]acetamide (5p)]
Acetylcholinesterase
  IC50: 0.27 µM
[1]
  IC50: > 100 µM

## CCN1CCN(CC(=O)Nc2ccc(-c3csc(C)n3)cc2)CC1 [2-(4-Ethylpiperazine-1-yl)-N-[4-(2-methylthiazol-4-yl)pheny])acetamide (5b)]
Acetylcholinesterase
  IC50: 11.7 µM
[1]
  IC50: > 100 µM

## COc1ccc(N2CCN(CC(=O)Nc3ccc(-c4csc(C)n4)cc3)CC2)cc1 [2-[4-(4-Methoxyphenyl)piperazine-1-yl]-N-[4-(2-methylthiazol-4-yl)phenyl]acetamide (5f)]
Acetylcholinesterase
  IC50: > 100 µM
[1]
  IC50: > 100 µM

## Cc1nc(-c2ccc(NC(=O)CN3CCN(c4ccccn4)CC3)cc2)cs1 [2-[4-(2-Pyridyl)piperazine-1-yl]-N-[4-(2-methylthiazol-4-yl)phenyl]acetamide (5n)]
Acetylcholinesterase
  IC50: 0.051 µM
[1]
  IC50: > 100 µM

## Cc1ccc(N2CCN(CC(=O)Nc3ccc(-c4csc(C)n4)cc3)CC2)cc1 [2-[4-(4-Methylphenyl)piperazine-1-yl]-N-[4-(2-methylthiazol-4-yl)phenyl]acetamide (5e)]
Acetylcholinesterase
  IC50: > 100 µM
[1]
  IC50: > 100 µM

## COc1cccc(N2CCN(CC(=O)Nc3ccc(-c4csc(C)n4)cc3)CC2)c1 [2-[4-(3-Methoxyphenyl)piperazine-1-yl]-N-[4-(2-methylthiazol-4-yl)phenyl]acetamide (5k)]
Acetylcholinesterase
  IC50: > 100 µM
[1]
  IC50: > 100 µM

## Cc1nc(-c2ccc(NC(=O)CN3CCN(c4ccc([N+](=O)[O-])cc4)CC3)cc2)cs1 [2-[4-(4-Nitrophenyl)piperazine-1-yl]-N-[4-(2-methylthiazol-4-yl)pheny]acetamide (5i)]
Acetylcholinesterase
  IC50: > 100 µM
[1]
  IC50: > 100 µM

## Cc1nc(-c2ccc(NC(=O)CN3CCN(c4ccccc4C)CC3)cc2)cs1 [2-[4-(2-Methylphenyl)piperazine-1-yl]-N-[4-(2-methylthiazol-4-yl)pheny]acetamide (5l)]
Acetylcholinesterase
  IC50: > 100 µM
[1]
  IC50: > 100 µM

## Cc1nc(-c2ccc(NC(=O)CN3CCN(c4ccc(F)cc4)CC3)cc2)cs1 [2-[4-(4-Florophenyl)piperazine-1-yl]-4-[4-(2-methylthiazol-4-yl)phenyl]acetamide (5h)]
Acetylcholinesterase
  IC50: > 100 µM
[1]
  IC50: > 100 µM
